Data on 21 molecules can be found in patent US7893094B2, “Amphiphilic pyridinium compounds, method of making and use thereof” (The Henry M. Jackson Foundation for the Advancement of …, priority 2003, dated 2011).

Like-named read-outs stand apart in the source and are kept apart here.

In this experiment the test system is IL-8 secretion from CF IB-3 cells. Description: Suppression of spontaneously-elevated (constitutive) IL-8 secretion in IB-3 CF lung epithelial cells, IL-8 ELISA normalised to DNA. The conditions noted are these: for loss of potency: IL-8 secretion, relative to the most potent analogue, Compound 3. The experiment is classed as cell-based. As for the experimental part: The CF lung epithelial cells IB3 and S9 have been previously described [Zeitlin et al., 1991; Eidelman et al., 2001a)]. Both […] and S9 cells were grown in serum-free LHC-8 medium (Biofluids), formulated without gentimycin. CF tracheal epithelial cells (2CFTE29o-) were obtained from University of Vermont. The latter cells were grown in EMEM (Biofluids), supplemented with 10% fetal bovine serum (FBS) and 1% Penicillin G-Streptomycin.
Initial assays for dug effects in the screening paradigm were performed in duplicate at 10, 3, 1, and 0.3 μM concentrations on IB-3 cells grown in 96 well microtiter plates. Each individual plate contained IB-3 and IB-3/S9 cells to set the boundary conditions of the assay. CPX and DAX, 5 μM each, were included in separate wells as positive controls. “Hits” in the screen were chosen on the basis of at least a 50% reduction in constitutive IL-8 secretion. Following a positive retest, candidate compounds were taken off-line for more detailed analysis under the exact same assay conditions. […] In most circumstances we use a maximum final solvent concentration of 0.1% DMSO or 0.01% ETOH.
The details of this assay have been described in a previous publication (Eidehman et la., 2001 a). Briefly, IB-3 cells are grown in 96 well microtiter plates to 80% confluency. Drugs, diluted in LHC-8 medium at the given concentrations, are added, and the cells allowed to incubate for an additional 24 hours. To initiate the experiment, cells are washed with fresh LHC-8 medium, and then incubated for an additional 16 hours in the same medium supplemented with drug. At the end of the time period, the supernatant solutions are collected and assayed for IL-8 by and ELISA assay. Alternatively, the samples are immediately frozen at −80° C. […] The IL-8 ELISA assay was assembled from bulk materials purchased from R&D, and performed exactly according to the manufacturers specifications. To detect possible drug toxicity on cells, as well as normalize to total cells per well, we measure the double stranded DNA content of cells attached to the plate after removal of supernatant solutions for IL-8 assay. Cells remaining on the plate are then fixed with 10% formalin for 30 minutes at room temperature before being incubated with propidium iodide (kit from Boehringer Mannheim). Propidium iodide content in each well is then measured with an automated fluorescence plate reader (FLUOstar Optima, MBG Lab Technologies). Final IL-8 data are calculated as a ratio of secreted IL-8 to DNA for each well. On occasion, cell proliferation assays are also carried out using the XTT assay (Roche).
For orientation: ELISA stands for enzyme-linked immunosorbent assay.

The mark [1] stands for this setting: inhibition of IL-8 secretion from CF IB-3 cells, Table 3 prints no unit (b104 gives μM for Compound 3), read-out: IC50.

In the case of “8-(3-carboxyamido-pyridinium)-n-octylα-methyl-2-(4[2-methylpropyl]benzene)-acetate iodide [Compound 18]”, the half-inhibitory concentration (IC50) under setting [1] came to 5.56 ± 0.98 µM. With “8-Pyridinium-n-octyl benzoate iodide [Compound 11]”, the IC50 under setting [1] is over 30 µM. “8-Pyridinium-n-octyl propionate iodide [Compound 7]”: the loss of potency stood at 34 fold. Besides, the IC50 under setting [1] came out at 12 ± 0.8 µM. For the molecule `C[C@H](OCc1ccccc1)C(=O)OCCCCCCCC[n+]1ccccc1` [Compound 10, S-8-Pyridinium-n-octyl α-benzyloxy-2-propionate iodide], the IC50 under setting [1] was over 30 µM. Take `CC(C(=O)OCCCCCCCC[n+]1ccccc1)c1ccc(NC(=O)OC(C)(C)C)cc1.[I-]` (stereo not drawn) [Compound 16]: the “activity on IL-8 secretion/production, in words” value is listed as “retention of the activity”. Further, the IC50 under setting [1] was 4.6 ± 0.9 µM.

With `CC(C(=O)OCCCCCCCC[n+]1ccccc1)c1ccc(N)cc1.I.[I-]` (stereo not drawn) [Compound 17, 8-Pyridinium-n-octyl α-methyl-2-[4-ammonium-phenyl]acetate iodide], the “activity on IL-8 secretion/production, in words” value is reported as “eliminated activity”. Moreover, under setting [1], the IC50 is over 30 µM. For the molecule `CC(C)Cc1ccc([C@H](C)C(=O)OCCCCCCCC[N+]2(C)CCOCC2)cc1.[Br-]` [Compound 21, S-8-[N-Methylmorpholinium-n-octyl α-methyl-2-(4]2-methylpropyl]benzene)acetate bromide], the IC50 under setting [1] worked out at 24 ± 1 µM. Same read-out and setting: to “R-8-Pyridinium-n-butyl α-methyl-2-phenylacetate iodide [Compound 1]” belongs over 30 µM; to “R-8-Pyridinium-n-decyl α-methyl-2-phenylacetate iodide [Compound 4]”, 2.52 ± 0.39 µM; to “R-8-Pyridinium-n-hexyl α-methyl-2-phenylacetate iodide [Compound 2]”, over 30 µM.

For the molecule “R-8-Pyridinium-n-octyl 2-hydroxy-3-phenylpropionate iodide [Compound 12]”, the “activity on IL-8 secretion/production, in words” value is on record as “no activity was evident”. The IC50 under setting [1] is over 30 µM.

Consider “R-8-Pyridinium-n-octyl α-ethyl-2-phenylacetate iodide [Compound 8]”, for which the “activity on IL-8 secretion/production, in words” value is given as “eliminated the activity”. Besides, under setting [1], the concentration for half-maximal inhibition (IC50) was determined as 3.16 ± 0.52 µM. For “R-8-Pyridinium-n-octyl α-hydroxy-α-methyl-2-phenylacetate iodide [Compound 6]”, in that order: “failed to restore the activity” and over 30 µM. As for “R-8-Pyridinium-n-octyl α-methyl-2-phenylacetate iodide [Compound 3]”, the half-inhibitory concentration (IC50) (IB-3 CF cells, read-out: IC50, inhibition of IL-8 secretion) was found to be 0.35 µM. Also, for the setting “IL-8 production, Compound 3 (R) versus its enantiomer Compound 5”, the “stereoselectivity of action in favor of the (R)-isomer” value is over 70 fold. For the molecule “S,S-1.8-di((α-methyl 2-(4-[2-methylpropyl]phenyl acetoxy)-n-octane [Compound 22]”, the “activity on IL-8 secretion/production, in words” value is on record as “eliminated the activity”. Also, the IC50 under setting [1] is over 30 µM. Regarding “S-8-(4-2-hydroxy-ethyl)pyridinium)-n-octyl α-methyl-2-(4-[2-methylpropyl]benzene)acetate bromide [Compound 20]”, under setting [1], the IC50 came out at 18 ± 0.9 µM. On the same count and under the same terms, to “S-8-(4-n-Prolpylpyridinium)-n-octyl α-methyl-2-(4-[2-methylpropyl]benzene)acetate bromide [Compound 19]” belongs 3.3 ± 0.5 µM. Regarding “S-8-Pyridinium-n-octyl 2-hydroxy-3-phenylpropionate iodide [Compound 13]”, the “activity on IL-8 secretion/production, in words” value was “no activity was evident”. In addition, the IC50 under setting [1] was over 30 µM.

As for “S-8-Pyridinium-n-octyl α-methoxy-2-phenylacetate iodide [Compound 9]”, the “activity on IL-8 secretion/production, in words” value is on record as “failed to restore the activity”. Also, under setting [1], the half-maximal inhibitory concentration (IC50) was over 30 µM. “S-8-Pyridinium-n-octyl α-methyl-2-(4-[2-methylpropyllbenzeneacetate bromide [Compound 15]” displayed a loss of potency of 6 fold. Also, the IC50 under setting [1] came to 2.2 ± 0.8 µM. Consider “S-8-Pyridinium-n-octyl α-methyl-2-phenylacetate iodide [Compound 5]”, for which the “activity on IL-8 secretion/production, in words” value is recorded as “much less active”. For the same molecule, the IC50 under setting [1] was over 25 µM.

One may read the IC50 as the midpoint of a concentration-inhibition curve.
